Source: PMC10746543, “Design principles for cyclin K molecular glue degraders” (Nature Chemical Biology, 2023)
Values joined by “and” are separate entries in the source; they are usually repeats but may differ in a detail not shown here. Equal entries are not always repeated. Where two headings read alike, the source gives them in different places. Each block holds one compound with its values, some of them ahead of it.

Key:
[1] = test system: cyclin K–eGFP degradation reporter; assay: Cyclin K reporter stability analysis (dual-color cyclin K–eGFP reporter); type: cell-based, human; conditions: for reporter assay signal (normalized): replicates; for Normalized GFP/mCheery: flow source data; for DC50: source data sheet correlations, read-out: DC50
Method in brief: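 HEK293T–Cas9 cells carrying the cyclin K–eGFP reporter were seeded at 1 × 10^6 ml^−1 and exposed to drug or DMSO for 5 h. Flow cytometry gave geometric means of eGFP and mCherry in round, mCherry-positive cells. The eGFP/mCherry ratio was normalized to the mean of three DMSO controls.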

[2] = target: T1, CDK12–cyclin K and DDB1 (Homo sapiens, UniProt Q16531+Q9NYV4, K965R); assay: TR-FRET ternary complex formation assay (compound titration); type: binding
T1 construct: His6–CDK12 (a.a. 713–1,052); full-length or beta-propeller B domain deletion (ΔBPB: a.a. 396–705 deleted) constructs of His6–DDB1ΔBPB, StrepII–Avi–DDB1, or His6–Spy–DDB1; made in house; host or cells: Trichoplusia ni High Five insect cells (baculovirus)
Method in brief: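 TR-FRET ratio 520/490 nm; 70 μs delay before read to suppress background.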

[3] = target: T2, CDK2–cyclin A (Homo sapiens, UniProt P24941); assay: Lanthascreen kinase binding assay, CDK2; conditions: for Lanthascreen signal, sheet CDK2: raw replicates
T2 construct: purchased Thermo Fisher
Experimental: Lanthascreen experiments were performed using commercially available reagents (Thermo Fisher) and according to the manufacturer’s instructions.

[4] = compound concentration 0.468 nM
[5] = compound concentration 7.92001 nM
[6] = compound concentration 15.84 nM
[7] = compound concentration 30.96 nM
[8] = compound concentration 62.6401 nM
[9] = compound concentration 125.28 nM
[10] = compound concentration 244.8 nM
[11] = compound concentration 993.601 nM
[12] = compound concentration 2001.6 nM
[13] = in vitro complex formation, 50 nM CDK12–cyclin K, 100 nM DDB1, text and figures, read-out: TR-FRET EC50
[14] = sheet MOESM7, read-out: log TR-FRET EC50 (converted)
[15] = source data sheet correlations, read-out: TR-FRET EC50
[16] = Compound 0.038147 nM, experiment r13-r23
[17] = Compound 0.152588 nM, experiment r13-r23
[18] = Compound 0.610352 nM, experiment r13-r23
[19] = Compound 9.76563 nM, experiment r13-r23
[20] = Compound 39.0625 nM, experiment r13-r23
[21] = Compound 156.25 nM, experiment r13-r23
[22] = Compound 625 nM, experiment r13-r23
[23] = Compound 2500 nM, experiment r13-r23
[24] = Compound 10000 nM, experiment r13-r23
[25] = Lanthascreen, average, Extended Data Fig. 8, read-out: CDK2 IC50
[26] = Supplementary Table 2, read-out: Lanthascreen IC50 [nM] CDK2

T1 sequence (Q9NYV4 713-1052 K965R): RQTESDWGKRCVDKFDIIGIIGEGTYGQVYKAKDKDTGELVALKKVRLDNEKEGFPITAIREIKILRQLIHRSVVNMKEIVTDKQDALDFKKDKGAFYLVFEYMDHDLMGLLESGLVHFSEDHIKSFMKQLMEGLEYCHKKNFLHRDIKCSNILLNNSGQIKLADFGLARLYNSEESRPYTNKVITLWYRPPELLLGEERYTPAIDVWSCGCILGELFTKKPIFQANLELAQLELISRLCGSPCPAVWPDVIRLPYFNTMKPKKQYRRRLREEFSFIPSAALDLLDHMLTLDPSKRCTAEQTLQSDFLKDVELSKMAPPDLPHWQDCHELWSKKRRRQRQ
T1 sequence (O75909 1-267 partner): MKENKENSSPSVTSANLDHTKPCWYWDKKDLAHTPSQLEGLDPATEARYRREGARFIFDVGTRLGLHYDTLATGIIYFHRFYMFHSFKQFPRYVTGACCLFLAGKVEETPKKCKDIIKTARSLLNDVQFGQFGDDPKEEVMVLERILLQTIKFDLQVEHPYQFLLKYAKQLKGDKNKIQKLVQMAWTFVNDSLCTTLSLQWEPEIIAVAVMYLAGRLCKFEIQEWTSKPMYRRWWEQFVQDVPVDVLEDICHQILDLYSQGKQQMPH
T1 sequence (Q16531 whole entry): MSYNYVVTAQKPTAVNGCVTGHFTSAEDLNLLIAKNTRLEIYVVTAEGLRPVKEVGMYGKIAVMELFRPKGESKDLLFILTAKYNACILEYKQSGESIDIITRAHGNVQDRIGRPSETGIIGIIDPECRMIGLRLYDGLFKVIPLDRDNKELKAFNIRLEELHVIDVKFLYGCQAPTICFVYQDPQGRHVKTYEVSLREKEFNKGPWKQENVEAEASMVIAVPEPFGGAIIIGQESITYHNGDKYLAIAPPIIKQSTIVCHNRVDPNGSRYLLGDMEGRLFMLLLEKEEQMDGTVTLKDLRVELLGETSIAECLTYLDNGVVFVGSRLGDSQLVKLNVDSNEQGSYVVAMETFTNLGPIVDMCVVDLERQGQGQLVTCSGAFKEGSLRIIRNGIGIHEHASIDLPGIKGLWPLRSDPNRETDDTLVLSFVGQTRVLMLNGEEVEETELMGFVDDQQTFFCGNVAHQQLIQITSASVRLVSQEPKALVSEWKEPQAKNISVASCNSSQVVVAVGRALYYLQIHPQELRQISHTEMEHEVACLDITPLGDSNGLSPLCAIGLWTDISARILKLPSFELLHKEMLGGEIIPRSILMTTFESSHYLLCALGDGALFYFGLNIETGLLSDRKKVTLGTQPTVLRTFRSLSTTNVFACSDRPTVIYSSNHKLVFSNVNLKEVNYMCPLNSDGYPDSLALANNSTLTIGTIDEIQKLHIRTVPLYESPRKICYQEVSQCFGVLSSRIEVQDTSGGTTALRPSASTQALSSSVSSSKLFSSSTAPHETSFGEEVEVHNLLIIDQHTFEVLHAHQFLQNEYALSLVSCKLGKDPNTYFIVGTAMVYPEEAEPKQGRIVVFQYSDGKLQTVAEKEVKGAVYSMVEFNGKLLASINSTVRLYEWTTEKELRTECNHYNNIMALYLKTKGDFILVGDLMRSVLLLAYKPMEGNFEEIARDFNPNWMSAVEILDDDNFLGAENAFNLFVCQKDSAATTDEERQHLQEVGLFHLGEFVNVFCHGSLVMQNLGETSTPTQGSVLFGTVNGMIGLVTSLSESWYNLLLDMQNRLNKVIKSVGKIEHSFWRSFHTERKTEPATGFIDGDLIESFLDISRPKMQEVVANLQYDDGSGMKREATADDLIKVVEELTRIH

DC50 [1]: 176 nM | TR-FRET signal [2, 4]: 0.3356 and 0.3148 | TR-FRET signal ([2]; compound concentration 2.16 nM): 0.4152 and 0.4184 | TR-FRET signal ([2]; compound concentration 3.6 nM): 0.5887 and 0.6016 | TR-FRET signal [2, 5]: 0.8771 and 0.9002 | TR-FRET signal [2, 6]: 1.301 and 1.376 | TR-FRET signal [2, 7]: 2 and 2.052 | TR-FRET signal [2, 8]: 2.747 and 2.77 | TR-FRET signal [2, 9]: 3.33 and 3.298 | TR-FRET signal [2, 10]: 3.75 and 3.634 | TR-FRET signal [2, 11]: 4.177 and 4.02 | TR-FRET signal [2, 12]: 4.179 and 4.0366 | EC50 [2, 13]: 38 ± 1 nM | EC50 [2, 14]: 37.8 nM | EC50 [2, 15]: 37.8 nM | Lanthascreen signal, sheet CDK2 [3, 16]: 0.01269 and 0.01352 | Lanthascreen signal, sheet CDK2 ([3]; Compound 0.038147 nM, experiment r48-r58): 0.008606 and 0.009047 | Lanthascreen signal, sheet CDK2 ([3]; Compound 0.038147 nM, experiment r60-r70): 0.02095 and 0.02064 and 0.01986 | Lanthascreen signal, sheet CDK2 [3, 17]: 0.01305 and 0.01362 | Lanthascreen signal, sheet CDK2 ([3]; Compound 0.152588 nM, experiment r48-r58): 0.00965 and 0.01047 | Lanthascreen signal, sheet CDK2 ([3]; Compound 0.152588 nM, experiment r60-r70): 0.02036 and 0.02142 and 0.02063 | Lanthascreen signal, sheet CDK2 [3, 18]: 0.01272 and 0.01276 | Lanthascreen signal, sheet CDK2 ([3]; Compound 0.610352 nM, experiment r48-r58): 0.009379 and 0.009611 | Lanthascreen signal, sheet CDK2 ([3]; Compound 0.610352 nM, experiment r60-r70): 0.02437 and 0.01852 and 0.0217 | Lanthascreen signal, sheet CDK2 [3, 19]: 0.0128 and 0.01342 | Lanthascreen signal, sheet CDK2 ([3]; Compound 9.76563 nM, experiment r48-r58): 0.0095 and 0.01028 | Lanthascreen signal, sheet CDK2 ([3]; Compound 9.76563 nM, experiment r60-r70): 0.02195 and 0.02182 and 0.02183 | Lanthascreen signal, sheet CDK2 [3, 20]: 0.01226 and 0.01223 | Lanthascreen signal, sheet CDK2 ([3]; Compound 39.0625 nM, experiment r48-r58): 0.009849 and 0.009843 | Lanthascreen signal, sheet CDK2 ([3]; Compound 39.0625 nM, experiment r60-r70): 0.02238 and 0.0202 and 0.02147 | Lanthascreen signal, sheet CDK2 [3, 21]: 0.01136 and 0.01335 | Lanthascreen signal, sheet CDK2 ([3]; Compound 156.25 nM, experiment r48-r58): 0.009932 and 0.01021 | Lanthascreen signal, sheet CDK2 ([3]; Compound 156.25 nM, experiment r60-r70): 0.02199 and 0.02222 and 0.02099 | Lanthascreen signal, sheet CDK2 [3, 22]: 0.01232 and 0.01317 | Lanthascreen signal, sheet CDK2 ([3]; Compound 625 nM, experiment r48-r58): 0.009318 and 0.009813 | Lanthascreen signal, sheet CDK2 ([3]; Compound 625 nM, experiment r60-r70): 0.02407 and 0.01928 and 0.02248 | Lanthascreen signal, sheet CDK2 [3, 23]: 0.0114 and 0.013 | Lanthascreen signal, sheet CDK2 ([3]; Compound 2500 nM, experiment r48-r58): 0.009215 and 0.009737 | Lanthascreen signal, sheet CDK2 ([3]; Compound 2500 nM, experiment r60-r70): 0.02278 and 0.02094 and 0.0202 | Lanthascreen signal, sheet CDK2 [3, 24]: 0.01075 and 0.01117 | Lanthascreen signal, sheet CDK2 ([3]; Compound 10000 nM, experiment r48-r58): 0.008396 and 0.009419 | Lanthascreen signal, sheet CDK2 ([3]; Compound 10000 nM, experiment r60-r70): 0.02054 and 0.0167 and 0.01885 | IC50 [3, 25]: > 10000 nM | IC50 [3, 26]: > 10000 nM
Structure (SMILES): C[C@H](C(=O)Nc1nc2ccccc2[nH]1)N1Cc2ccccc2C1=O [compound 919278]
reporter assay signal (normalized) ([1]; 5 nM): 0.9951 and 0.9832 | reporter assay signal (normalized) ([1]; 10.7 nM): 0.9896 and 0.9546 | Normalized GFP/mCheery ([1]; 22.9 nM, HEK293T): 0.8457 | reporter assay signal (normalized) ([1]; 22.9 nM): 0.9344 and 0.9583 | Normalized GFP/mCheery ([1]; 48.9 nM, HEK293T): 0.8139 | reporter assay signal (normalized) ([1]; 48.9 nM): 0.9381 and 0.9234 | Normalized GFP/mCheery ([1]; 105 nM, HEK293T): 0.8144 | reporter assay signal (normalized) ([1]; 105 nM): 0.9087 and 0.8866 | reporter assay signal (normalized) ([1]; 224 nM): 0.8755 and 0.8691 | Normalized GFP/mCheery ([1]; 478 nM, HEK293T): 0.7219 | reporter assay signal (normalized) ([1]; 478 nM): 0.8011 and 0.8332 | reporter assay signal (normalized) ([1]; 2190 nM): 0.7799 and 0.7725 | reporter assay signal (normalized) ([1]; 4680 nM): 0.7431 and 0.7578 | Normalized GFP/mCheery ([1]; 10000 nM, HEK293T): 0.6269 | reporter assay signal (normalized) ([1]; 10000 nM): 0.7256 and 0.8167 | cyclin K reporter degradation, result in words ([1]; HEK293T): weaker

DC50 [1]: 633 nM | TR-FRET signal [2, 4]: 0.3316 and 0.3176 | TR-FRET signal ([2]; compound concentration 2.16 nM): 0.3609 and 0.3684 | TR-FRET signal ([2]; compound concentration 3.6 nM): 0.446 and 0.4561 | TR-FRET signal ([2]; compound concentration 4.68 nM): 0.2526 and 0.2575 | TR-FRET signal [2, 5]: 0.6045 and 0.6093 | TR-FRET signal [2, 6]: 0.8627 and 0.8782 | TR-FRET signal ([2]; compound concentration 21.6 nM): 0.6074 and 0.6249 | TR-FRET signal [2, 7]: 1.396 and 1.344 | TR-FRET signal ([2]; compound concentration 36 nM): 1.231 and 1.287 | TR-FRET signal [2, 8]: 1.902 and 1.956 | TR-FRET signal ([2]; compound concentration 79.2001 nM): 2.008 and 2.099 | TR-FRET signal [2, 9]: 2.531 and 2.559 | TR-FRET signal ([2]; compound concentration 158.4 nM): 2.698 and 2.725 | TR-FRET signal [2, 10]: 3.133 and 3.085 | TR-FRET signal ([2]; compound concentration 309.6 nM): 3.151 and 3.239 | TR-FRET signal ([2]; compound concentration 626.401 nM): 3.549 and 3.629 | TR-FRET signal [2, 11]: 3.858 and 3.701 | TR-FRET signal ([2]; compound concentration 1252.8 nM): 3.752 and 3.846 | TR-FRET signal [2, 12]: 3.973 and 3.947 | TR-FRET signal ([2]; compound concentration 2448 nM): 3.918 and 3.967 | TR-FRET signal ([2]; compound concentration 9936.01 nM): 3.896 and 3.914 | TR-FRET signal ([2]; compound concentration 20016 nM): 3.769 and 3.757 | EC50 [2, 13]: 83 ± 4 nM | EC50 [2, 14]: 83.2 nM | EC50 [2, 15]: 83.2 nM | Lanthascreen signal, sheet CDK2 [3, 16]: 0.01324 and 0.0125 | Lanthascreen signal, sheet CDK2 [3, 17]: 0.01322 and 0.0127 | Lanthascreen signal, sheet CDK2 [3, 18]: 0.01294 and 0.01324 | Lanthascreen signal, sheet CDK2 ([3]; Compound 1.02544 nM, experiment r1-r11): 0.01157 and 0.009543 | Lanthascreen signal, sheet CDK2 ([3]; Compound 3.15521 nM, experiment r1-r11): 0.01134 and 0.008854 | Lanthascreen signal, sheet CDK2 ([3]; Compound 9.46563 nM, experiment r1-r11): 0.008629 and 0.01226 | Lanthascreen signal, sheet CDK2 [3, 19]: 0.01333 and 0.01313 | Lanthascreen signal, sheet CDK2 ([3]; Compound 31.5521 nM, experiment r1-r11): 0.009538 and 0.01114 | Lanthascreen signal, sheet CDK2 [3, 20]: 0.01348 and 0.0134 | Lanthascreen signal, sheet CDK2 ([3]; Compound 99.3891 nM, experiment r1-r11): 0.01108 and 0.01101 | Lanthascreen signal, sheet CDK2 [3, 21]: 0.01287 and 0.01355 | Lanthascreen signal, sheet CDK2 ([3]; Compound 315.521 nM, experiment r1-r11): 0.0103 and 0.01153 | Lanthascreen signal, sheet CDK2 [3, 22]: 0.01294 and 0.01314 | Lanthascreen signal, sheet CDK2 [3, 23]: 0.01073 and 0.0108 | Lanthascreen signal, sheet CDK2 ([3]; Compound 3155.21 nM, experiment r1-r11): 0.01038 and 0.01039 | Lanthascreen signal, sheet CDK2 [3, 24]: 0.01123 and 0.01202 | Lanthascreen signal, sheet CDK2 ([3]; Compound 10002 nM, experiment r1-r11): 0.01161 and 0.009572 | IC50 [3, 25]: > 10000 nM | IC50 [3, 26]: > 10000 nM
Structure (SMILES): O=C(CSc1nnc2c(n1)[nH]c1ccccc12)Nc1ccc(Cl)cn1 [dCeMM2]
